Results taken from ChEMBL document CHEMBL1127770, “2-(1-Cyclopenten-1-yl)-2-[2-(dimethylamino)ethyl]-5-(E)-benzylidene cyclopentanone hydrochlorides: a new series of moderate cytotoxic agents” (1994).

system: Panel (Carcinoma cell lines); assay: Cytotoxic activity against human cancer cell lines was determined; type: functional

| Compound | GI50 | LC50 | Log TCI |
| --- | --- | --- | --- |
| CN(C)CCC1(C2=CCCC2)CC/C(=C\c2ccc(Cl)cc2)C1=O.Cl (stereo unspecified) | 7.08 µM | 44.7 µM | -4.72 |
| CN(C)CCC1(C2=CCCC2)CC/C(=C\c2ccccc2)C1=O.Cl (stereo unspecified) | 16.2 µM | – | -4.49 |
| COc1ccc(/C=C2\CCC(CCN(C)C)(C3=CCCC3)C2=O)cc1Br.Cl (stereo unspecified) | 4.47 µM | 35.5 µM | -4.89 |
| COc1ccccc1/C=C1\CCC(CCN(C)C)(C2=CCCC2)C1=O.Cl (stereo unspecified) | 15.8 µM | 70.8 µM | -4.43 |
| COc1ccc(/C=C2\CCC(CCN(C)C)(C3=CCCC3)C2=O)cc1.Cl (stereo unspecified) | 17.8 µM | – | -4.42 |
| CN(C)CCC1(C2=CCCC2)CC/C(=C\c2ccc3c(c2)OCO3)C1=O.Cl (stereo unspecified) | 14.8 µM | 60.3 µM | -4.52 |
| COc1cccc(/C=C2\CCC(CCN(C)C)(C3=CCCC3)C2=O)c1.Cl (stereo unspecified) | 15.5 µM | – | -4.52 |
| CN(C)CCC1(C2=CCCC2)CC/C(=C\c2ccccc2Cl)C1=O.Cl (stereo unspecified) | 11.7 µM | 60.3 µM | -4.56 |
